In patent US20060134221A1, “Methods for producing block copolymer/amphiphilic particles” (priority 2004, published 2006):

How the values were obtained:
[1] = Particle size measurements using photon correlation spectroscopy (mean Z average diameter, polydispersity); type: physicochemical; conditions: for interaction with poloxamer: individual benzalkonium chloride analogs, thermal cycling (Example 1)
Source text: The following examples employ a Malvern 3000 HS Zetasizer to measure particle size. Particles with diameters that range from 1 to 5000 nm, can be measured using the method of photon correlation spectroscopy (PCS). Particles in this size range are in constant random thermal (or Brownian) motion. This motion causes the intensity of light scattered from the particles to form a moving speckle pattern which, with the use of optics and a photomultiplier, can be detected as a change in intensity with time. Large particles move more slowly than small particles, therefore the rate of fluctuation of light scattered from large particles is slower. PCS uses the rate of change of these light fluctuations to determine the size distribution of the particles scattering light. Data is plotted as the auto-correlation function (counts per correlator against delay time). Analysis of this function obtained over time, with a sufficient number of data points, enables the translational diffusion coefficient of the particles undergoing Brownian motion to be calculated. From this coefficient, together with the temperature and viscosity of the suspending liquid, the particle size can be calculated. For aqueous dispersions, the default set-up of the Malvern 3000 HS Zetasizer calculates the viscosity from the temperature. The best single measurement to describe the size of a poloxamer formulation is the mean Z average or the hydrodynamic diameter, which is calculated using cumulants analysis. The polydispersity describes the width of the distribution.
The size of the particles produced was determined using photon correlation spectroscopy. The particle size as reported herein refers to the mean Z average diameter also known as the hydrodynamic diameter. The surface charge of the particles was also determined using micro-electrophoresis.

[2] = Dissolution characteristics of BAK homologs in PBS; type: physicochemical
Source text: Stock solutions of benzyldimethyldodecylammonium chloride (BAK C12, Fluka Chemical Corp., Milwaukee, Wis., cat #53233), benzyldimethyltetradecylammonium chloride (BAK C14, TCI America, Portland, Oreg., cat #A0208), benzyldimethylhexadecyllammonium chloride (BAK C16, TCI America, Portland, Oreg., cat #B0237) and benzyldimethyloctadecylammonium chloride (BAK C18, TCI America, Portland, Oreg., cat #B1297) were made in PBS.

[3] = Example 9, 269 mg in 70 ml sterile water for injection, homogenized/extruded 10,000 psi, 15° C., 5 passes

## CCCCCCCCCCCCCCOCC(C[N+](C)(C)CCO)OCCCCCCCCCCCCCC.[Br-] (racemic) [DMRIE, (±)-N-(2-hydroxyethyl)-N,N-dimethyl-2,3-bis(tetradecyloxy)-1-propanaminium bromide]
[1]; [3]
  Particle size: 65 nm
  polydispersity: 0.21

## CCCCCCCCCCCC[N+](C)(C)Cc1ccccc1.[Cl-] [BAK C12, benzyldimethyldodecylammonium chloride]
[1]
  interaction with poloxamer: does not interact with poloxamer
[1]; thermal cycling method
  formation of cell delivery particles with CRL-1005 and DNA: do not form cell delivery particles

## CCCCCCCCCCCCCC[N+](C)(C)Cc1ccccc1.[Cl-] [BAK C14, benzyldimethyltetradecylammonium chloride]
[2]; Concentration in PBS 5 mM
  Dissolution Temperature: 25 °C
[1]
  interaction with poloxamer: interact with poloxamer to produce submicron particles with a positive surface charge

## CCCCCCCCCCCCCCCC[N+](C)(C)Cc1ccccc1.[Cl-] [BAK C16, benzyldimethylhexadecyllammonium chloride]
[2]; Concentration in PBS 2 mM
  Dissolution Temperature: 45 °C
[2]; Concentration in PBS 5 mM
  Dissolution Temperature: 45 °C
[1]
  interaction with poloxamer: interact with poloxamer to produce submicron particles with a positive surface charge

## CCCCCCCCCCCCCCCCCC[N+](C)(C)Cc1ccccc1.[Cl-] [BAK C18, benzyldimethyloctadecylammonium chloride]
[2]; Concentration in PBS 1 mM
  Dissolution Temperature: 45 °C
[2]; Concentration in PBS 2 mM
  Dissolution Temperature: 45 °C
[2]; Concentration in PBS 5 mM
  Dissolution Temperature: 45 °C
[1]; Example 13, thermal cycling method
  formation of small, uniform cell delivery particles with CRL-1005: does not form small nor uniform cell delivery particles
[1]
  interaction with poloxamer: does interact with poloxamer to produce large micron sized particles with a positive surface charge
[1]; thermal cycling method
  formation of cell delivery particles with CRL-1005 and DNA: do not form cell delivery particles
